# Reference: ChEMBL document CHEMBL5678818, “Discovery of potent SOS1 inhibitors that block RAS activation via disruption of the RAS-SOS1 interaction” (Proc Natl Acad Sci U S A, 2019)
# Assays:
# [1] = target: Tyrosine-protein kinase Lyn (Homo sapiens) (UniProt P07948); assay: Inhibition of LYN (unknown origin) assessed as residual activity at 1000 nM by KINOMEscan analysis relative to control
# [2] = target: T1, Ephrin type-B receptor 3 (Homo sapiens) (UniProt P54753); assay: Inhibition of EPHB3 (unknown origin) assessed as residual activity at 1000 nM by KINOMEscan analysis relative to control
# T1 sequence (whole entry): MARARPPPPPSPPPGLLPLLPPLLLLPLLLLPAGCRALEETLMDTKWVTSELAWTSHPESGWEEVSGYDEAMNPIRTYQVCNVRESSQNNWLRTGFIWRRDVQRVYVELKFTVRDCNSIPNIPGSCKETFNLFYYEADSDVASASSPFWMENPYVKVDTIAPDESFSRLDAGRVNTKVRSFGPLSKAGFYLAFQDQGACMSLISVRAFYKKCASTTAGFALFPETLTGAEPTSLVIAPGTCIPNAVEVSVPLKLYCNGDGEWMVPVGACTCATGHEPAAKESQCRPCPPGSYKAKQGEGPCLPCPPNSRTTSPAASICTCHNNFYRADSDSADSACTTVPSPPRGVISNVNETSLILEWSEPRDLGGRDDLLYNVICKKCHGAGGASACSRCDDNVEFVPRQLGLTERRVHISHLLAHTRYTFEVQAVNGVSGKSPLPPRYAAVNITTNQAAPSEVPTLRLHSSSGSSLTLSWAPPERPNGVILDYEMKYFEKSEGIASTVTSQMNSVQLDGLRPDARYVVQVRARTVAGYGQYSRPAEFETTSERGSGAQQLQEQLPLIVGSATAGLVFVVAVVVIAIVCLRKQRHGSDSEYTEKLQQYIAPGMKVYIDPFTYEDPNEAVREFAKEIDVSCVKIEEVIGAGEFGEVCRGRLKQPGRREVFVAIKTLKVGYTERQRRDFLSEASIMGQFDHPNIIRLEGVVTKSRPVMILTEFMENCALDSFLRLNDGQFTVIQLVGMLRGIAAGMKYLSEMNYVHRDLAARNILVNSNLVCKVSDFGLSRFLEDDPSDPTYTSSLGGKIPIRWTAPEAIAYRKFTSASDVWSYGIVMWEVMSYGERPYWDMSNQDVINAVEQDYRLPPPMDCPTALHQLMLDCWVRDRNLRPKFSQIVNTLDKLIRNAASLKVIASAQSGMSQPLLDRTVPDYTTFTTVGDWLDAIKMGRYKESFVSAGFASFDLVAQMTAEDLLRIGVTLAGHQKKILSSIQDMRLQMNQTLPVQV
# [3] = system: Epidermal growth factor receptor (Homo sapiens), P00533 [L858R]; assay: Inhibition of EGFR L858R mutant (unknown origin) assessed as residual activity at 1000 nM by KINOMEscan analysis relative to control
# [4] = target: T2, Phosphatidylinositol 5-phosphate 4-kinase type-2 beta (Homo sapiens) (UniProt P78356); assay: Inhibition of PIP5K2B (unknown origin) assessed as residual activity at 1000 nM by KINOMEscan analysis relative to control
# T2 sequence (whole entry): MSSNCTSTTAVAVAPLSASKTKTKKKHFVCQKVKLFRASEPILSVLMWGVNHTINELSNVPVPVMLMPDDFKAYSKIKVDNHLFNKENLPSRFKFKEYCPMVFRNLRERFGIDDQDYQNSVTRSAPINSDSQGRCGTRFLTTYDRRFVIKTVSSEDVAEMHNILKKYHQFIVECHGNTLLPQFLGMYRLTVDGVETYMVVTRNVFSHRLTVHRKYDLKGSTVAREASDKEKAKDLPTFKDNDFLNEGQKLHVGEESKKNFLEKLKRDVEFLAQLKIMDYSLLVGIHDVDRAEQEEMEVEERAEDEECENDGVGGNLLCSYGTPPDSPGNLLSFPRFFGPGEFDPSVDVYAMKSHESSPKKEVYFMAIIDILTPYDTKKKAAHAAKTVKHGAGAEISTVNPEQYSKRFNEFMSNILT
# [5] = target: T3, Serine/threonine-protein kinase LATS2 (Homo sapiens) (UniProt Q9NRM7); assay: Inhibition of LATS2 (unknown origin) assessed as residual activity at 1000 nM by KINOMEscan analysis relative to control
# T3 sequence (whole entry): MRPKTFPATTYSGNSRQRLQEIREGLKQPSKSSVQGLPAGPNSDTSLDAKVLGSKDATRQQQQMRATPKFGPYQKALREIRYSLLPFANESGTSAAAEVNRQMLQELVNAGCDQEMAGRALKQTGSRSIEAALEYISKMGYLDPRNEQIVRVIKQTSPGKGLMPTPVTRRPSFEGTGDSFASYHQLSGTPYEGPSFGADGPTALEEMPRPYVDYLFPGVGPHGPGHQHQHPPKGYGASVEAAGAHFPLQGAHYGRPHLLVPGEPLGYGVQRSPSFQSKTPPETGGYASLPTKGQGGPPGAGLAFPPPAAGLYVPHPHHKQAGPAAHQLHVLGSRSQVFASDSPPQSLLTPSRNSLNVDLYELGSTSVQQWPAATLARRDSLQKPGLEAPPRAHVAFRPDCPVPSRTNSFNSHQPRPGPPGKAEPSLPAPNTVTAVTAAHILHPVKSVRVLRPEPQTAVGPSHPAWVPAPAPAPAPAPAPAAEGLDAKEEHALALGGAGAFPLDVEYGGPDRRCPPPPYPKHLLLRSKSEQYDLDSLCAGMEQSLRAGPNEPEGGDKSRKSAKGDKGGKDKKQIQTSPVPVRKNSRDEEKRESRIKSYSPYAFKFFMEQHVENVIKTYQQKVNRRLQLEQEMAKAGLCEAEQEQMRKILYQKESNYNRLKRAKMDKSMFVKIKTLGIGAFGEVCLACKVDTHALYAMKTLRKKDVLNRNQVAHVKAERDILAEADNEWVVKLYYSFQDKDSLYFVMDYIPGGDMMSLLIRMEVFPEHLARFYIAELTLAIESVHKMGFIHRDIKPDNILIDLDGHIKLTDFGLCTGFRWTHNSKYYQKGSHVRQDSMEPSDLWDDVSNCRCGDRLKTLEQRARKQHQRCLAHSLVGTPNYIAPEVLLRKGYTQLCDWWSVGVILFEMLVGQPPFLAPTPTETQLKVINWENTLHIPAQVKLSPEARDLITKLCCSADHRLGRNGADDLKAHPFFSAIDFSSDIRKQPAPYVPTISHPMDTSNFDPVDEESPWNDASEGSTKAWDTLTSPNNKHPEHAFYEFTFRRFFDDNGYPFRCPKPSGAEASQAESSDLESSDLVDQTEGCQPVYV
# Chain of Tyrosine-protein kinase Lyn (Homo sapiens) (P07948 2-512 limits assumed): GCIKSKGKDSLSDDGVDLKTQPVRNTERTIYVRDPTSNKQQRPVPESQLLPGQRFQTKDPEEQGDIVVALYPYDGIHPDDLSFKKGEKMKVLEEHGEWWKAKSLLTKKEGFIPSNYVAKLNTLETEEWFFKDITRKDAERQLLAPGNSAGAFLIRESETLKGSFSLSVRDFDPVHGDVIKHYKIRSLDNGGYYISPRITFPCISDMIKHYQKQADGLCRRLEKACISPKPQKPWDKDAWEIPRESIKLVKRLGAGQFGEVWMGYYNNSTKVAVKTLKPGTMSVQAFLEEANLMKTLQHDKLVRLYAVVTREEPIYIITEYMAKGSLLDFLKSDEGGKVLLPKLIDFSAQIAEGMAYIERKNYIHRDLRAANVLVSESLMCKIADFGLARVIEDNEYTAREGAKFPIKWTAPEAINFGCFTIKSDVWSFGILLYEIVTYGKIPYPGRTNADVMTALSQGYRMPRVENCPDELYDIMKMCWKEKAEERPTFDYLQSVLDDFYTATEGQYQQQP
compound,measurement,setting,value
COc1cc2nc(C)nc(N[C@H](C)c3cccc(-c4cn[nH]c4)c3)c2cc1OC,Activity,[1],100%
same,Activity,[2],100%
same,Activity,[3],100%
same,Activity,[4],89%
same,Activity,[5],100%
COc1cc2ncnc(N[C@H](C)c3cccc4ccccc34)c2cc1OC,Activity,[1],91%
same,Activity,[2],100%
same,Activity,[3],1.7%
same,Activity,[4],100%
same,Activity,[5],89%
